Laboratory results from patent US20110237538A1, “TREATMENT OF LYSOSOMAL STORAGE DISORDERS AND OTHER PROTEOSTATIC DISEASES” (SUMMIT CORPORATION PLC, priority 2008, published 2011).
Each block holds one compound with its values, some of them ahead of it.

Legend:
[1] = molecular target: T1, beta-glucuronidase (Homo sapiens, UniProt P08236); test: inhibition of beta-glucuronidase (Example 3); assay type: biochemical
T1 sequence (P08236 23-651): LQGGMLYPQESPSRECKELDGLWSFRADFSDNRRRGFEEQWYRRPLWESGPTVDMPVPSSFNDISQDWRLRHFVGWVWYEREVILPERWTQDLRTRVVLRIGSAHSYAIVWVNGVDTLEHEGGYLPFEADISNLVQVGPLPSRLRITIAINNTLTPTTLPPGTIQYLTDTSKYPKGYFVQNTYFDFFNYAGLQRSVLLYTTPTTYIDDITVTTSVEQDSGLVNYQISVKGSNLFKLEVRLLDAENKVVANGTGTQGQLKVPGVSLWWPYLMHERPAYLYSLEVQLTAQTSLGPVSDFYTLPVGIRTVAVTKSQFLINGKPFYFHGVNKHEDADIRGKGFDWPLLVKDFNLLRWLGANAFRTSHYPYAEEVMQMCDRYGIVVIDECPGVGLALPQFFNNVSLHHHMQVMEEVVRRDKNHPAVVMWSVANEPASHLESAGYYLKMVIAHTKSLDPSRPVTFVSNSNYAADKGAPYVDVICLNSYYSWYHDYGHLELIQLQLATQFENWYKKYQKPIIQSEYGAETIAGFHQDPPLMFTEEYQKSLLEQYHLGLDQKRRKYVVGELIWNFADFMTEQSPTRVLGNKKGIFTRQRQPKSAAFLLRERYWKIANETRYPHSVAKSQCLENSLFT
Description: (§1) This compound, for example, might therefore show therapeutic activity for mucopolysaccharidosis type 1.

[2] = molecular target: T2, alpha-L-iduronidase (Homo sapiens, UniProt P35475); test: inhibition of alpha-L-iduronidase (Example 3); assay type: biochemical
T2 sequence (P35475 28-653): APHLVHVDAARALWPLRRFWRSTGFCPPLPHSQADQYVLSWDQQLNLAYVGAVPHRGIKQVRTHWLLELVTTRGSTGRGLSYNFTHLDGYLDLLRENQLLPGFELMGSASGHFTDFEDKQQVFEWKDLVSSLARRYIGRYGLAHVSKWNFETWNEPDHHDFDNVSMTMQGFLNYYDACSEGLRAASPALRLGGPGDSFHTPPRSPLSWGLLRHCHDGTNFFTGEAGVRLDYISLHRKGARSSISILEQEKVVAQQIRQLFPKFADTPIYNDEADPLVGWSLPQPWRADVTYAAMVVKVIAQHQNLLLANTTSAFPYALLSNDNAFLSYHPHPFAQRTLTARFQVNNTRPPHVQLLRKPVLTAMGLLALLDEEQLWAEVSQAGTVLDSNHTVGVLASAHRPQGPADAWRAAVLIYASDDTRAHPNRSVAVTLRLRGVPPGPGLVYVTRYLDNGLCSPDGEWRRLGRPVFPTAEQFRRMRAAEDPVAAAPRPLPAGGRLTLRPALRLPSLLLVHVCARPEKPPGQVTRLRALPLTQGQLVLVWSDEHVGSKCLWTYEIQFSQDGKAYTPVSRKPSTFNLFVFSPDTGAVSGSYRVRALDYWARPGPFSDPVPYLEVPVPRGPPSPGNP
Description: as §1

[3] = tested on: the other 14 glycosidases described in Example 2; test: glycosidase panel of Example 2 (selectivity); assay type: biochemical
Procedure: The assays were conducted as described by Watson et al. 1997, Phytochemistry 46: 255-259 using p-nitrophenyl-substrates. Assays were carried out in microtitre plates. Enzymes were assayed in 0.1M citric acid/0.2M di-sodium hydrogen phosphate (Mcllvaine) buffers at the optimum pH for the enzyme. All assays were carried out at 20° C. All enzymes and substrates were purchased from Sigma Aldrich Chemicals Limited. The incubation mixture consisted of 10 μl of enzyme solution, 10 μl of the iminosugars solution (made up in deionised water at 5 mM) and 50 μl of the appropriate 5 mM p-nitrophenyl substrate made up in McIlvaine buffer at the optimum pH for the enzyme. The reactions were stopped with 0.4M glycine (pH 10.4) during the exponential phase of the reaction, which was determined at the beginning of the assay using blanks with water, which were incubated for a range of time periods to measure the reaction rate using 5 mM substrate solution. Absorbances were read at 405 nm. Water was substituted for the inhibitors in the blanks. […]

[4] = molecular target: T3, Jack bean α-D-mannosidase (Canavalia ensiformis, UniProt C0HJB3); test: α-mannosidase activity assay with p-nitrophenyl-α-D-mannopyranoside (Example 1); assay type: biochemical; settings: Jack Bean α-mannosidase, p-nitrophenyl-α-D-mannopyranoside as the substrate
T3 construct: purchased Sigma M7257
T3 sequence (C0HJB3 1-981): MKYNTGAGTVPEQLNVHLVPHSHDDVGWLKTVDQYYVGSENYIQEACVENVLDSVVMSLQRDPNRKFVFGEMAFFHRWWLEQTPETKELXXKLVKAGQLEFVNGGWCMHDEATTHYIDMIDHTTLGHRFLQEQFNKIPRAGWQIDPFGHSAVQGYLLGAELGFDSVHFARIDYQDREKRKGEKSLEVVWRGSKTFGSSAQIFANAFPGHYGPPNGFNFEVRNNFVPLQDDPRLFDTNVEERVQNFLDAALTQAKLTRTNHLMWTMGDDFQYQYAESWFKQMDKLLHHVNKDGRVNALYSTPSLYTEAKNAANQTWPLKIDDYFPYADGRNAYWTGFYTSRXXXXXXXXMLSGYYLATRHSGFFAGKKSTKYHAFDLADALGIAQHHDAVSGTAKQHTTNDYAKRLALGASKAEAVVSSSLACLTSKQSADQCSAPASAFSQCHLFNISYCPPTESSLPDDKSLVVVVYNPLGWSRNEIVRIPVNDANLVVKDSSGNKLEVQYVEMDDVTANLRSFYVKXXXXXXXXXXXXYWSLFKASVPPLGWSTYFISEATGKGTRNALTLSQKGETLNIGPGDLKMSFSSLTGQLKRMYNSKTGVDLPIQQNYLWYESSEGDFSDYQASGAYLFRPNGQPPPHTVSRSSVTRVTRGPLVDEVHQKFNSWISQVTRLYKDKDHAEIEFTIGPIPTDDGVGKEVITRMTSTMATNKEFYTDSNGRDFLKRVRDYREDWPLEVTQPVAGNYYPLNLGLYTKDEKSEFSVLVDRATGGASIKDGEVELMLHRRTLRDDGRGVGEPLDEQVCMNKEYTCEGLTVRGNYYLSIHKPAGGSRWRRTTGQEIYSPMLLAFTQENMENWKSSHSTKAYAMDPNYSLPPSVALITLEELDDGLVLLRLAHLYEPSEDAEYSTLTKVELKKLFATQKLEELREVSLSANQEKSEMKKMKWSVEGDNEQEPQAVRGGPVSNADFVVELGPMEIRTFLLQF
Procedure: Solutions of 0.2M Mcllvane buffer at pH 4.5 and 5 mM p-nitrophenyl-α-D-mannopyranoside (Sigma, N2127), dissolved in the buffer, were prepared. A solution of Jack bean α-D-mannosidase enzyme (Sigma, M7257, 22 Units/mg, 6.2 mg/ml.) was also prepared at 0.6 Units/ml in the buffer.
The incubation mixture consisted of 10 μl enzyme solution, 10 μl of 1 mg/ml aqueous iminosugar solution and 50 μl of 5 mM substrate made up in buffer at the optimum pH for the enzyme. The reactions were stopped by addition of 70 μl 0.4M glycine (pH 10.4) during the exponential phase of the reaction, which had been determined at the beginning using uninhibited assays in which water replaced inhibitor. Final absorbances were read at 405 nm using a Versamax microplate reader (Molecular Devices). Assays were carried out in triplicate, and the values given are means of the three replicates. Results were expressed as a percentage of uninhibited assays in which water replaced inhibitor.

[5] = tested on: beta-glucocerebrosidase (N370S GM01873, L444P GM08752); test: enzyme enhancement assay, cell based screening for chaperones (Gaucher lymphoblasts); parameters: species or system human; settings: Gaucher patient lymphoblasts, dosed 0.3-100 μM, 72 hr; relative to vehicle, normalised against total protein
[6] = tested on: alpha-galactosidase; test: enzyme enhancement assay, cell based screening for chaperones (Fabry lymphoblasts GM04391); parameters: species or system human; settings: Fabry patient lymphoblasts (GM04391), dosed 0.3-100 μM, 72 hr; relative to vehicle
[7] = molecular target: T4, α-D-galactosidase (green coffee beans) (Coffea arabica, UniProt Q42656); test: glycosidase assay with p-nitrophenyl substrates (Example 2); assay type: biochemical; settings: 10 μl of 5 mM iminosugar solution in 70 μl incubation mixture; 20° C.; read-out: Promotion of glycosidase activity: α-D-galactosidase (Green coffee bean)
T4 construct: purchased Sigma Aldrich Chemicals Limited
T4 sequence (Q42656 16-378): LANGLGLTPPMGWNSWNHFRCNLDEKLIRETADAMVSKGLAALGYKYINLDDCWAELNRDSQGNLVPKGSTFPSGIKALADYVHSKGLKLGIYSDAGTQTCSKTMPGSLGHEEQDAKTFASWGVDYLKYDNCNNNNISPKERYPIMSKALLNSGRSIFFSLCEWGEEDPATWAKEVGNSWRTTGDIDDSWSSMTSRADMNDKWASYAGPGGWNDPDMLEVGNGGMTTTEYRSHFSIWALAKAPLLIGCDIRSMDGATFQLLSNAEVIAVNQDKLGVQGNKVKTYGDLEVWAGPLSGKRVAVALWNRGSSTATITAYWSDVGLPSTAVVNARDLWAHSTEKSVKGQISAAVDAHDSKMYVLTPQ
Summary of the method: (§2)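 Iminosugars tested at 5 mM (solution concentration) against p-nitrophenyl substrates (5 mM) in McIlvaine citrate/phosphate buffer at each enzyme's optimum pH, 20° C. Reactions stopped with 0.4M glycine pH 10.4 within the exponential phase; absorbance at 405 nm against water blanks.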

[8] = tested on: α-D-glucosidase (Bacillus sterothermophilus); test: as above; assay type: biochemical; settings: 10 μl of 5 mM iminosugar solution in 70 μl incubation mixture; 20° C.
Summary of the method: as §2

[9] = molecular target: T5, α-L-fucosidase (bovine kidney) (Bos taurus, UniProt Q2KIM0); test: as above; assay type: biochemical; settings: 10 μl of 5 mM iminosugar solution in 70 μl incubation mixture; 20° C.
T5 construct: purchased Sigma Aldrich Chemicals Limited; host or cells: bovine kidney
T5 sequence (Q2KIM0 23-468): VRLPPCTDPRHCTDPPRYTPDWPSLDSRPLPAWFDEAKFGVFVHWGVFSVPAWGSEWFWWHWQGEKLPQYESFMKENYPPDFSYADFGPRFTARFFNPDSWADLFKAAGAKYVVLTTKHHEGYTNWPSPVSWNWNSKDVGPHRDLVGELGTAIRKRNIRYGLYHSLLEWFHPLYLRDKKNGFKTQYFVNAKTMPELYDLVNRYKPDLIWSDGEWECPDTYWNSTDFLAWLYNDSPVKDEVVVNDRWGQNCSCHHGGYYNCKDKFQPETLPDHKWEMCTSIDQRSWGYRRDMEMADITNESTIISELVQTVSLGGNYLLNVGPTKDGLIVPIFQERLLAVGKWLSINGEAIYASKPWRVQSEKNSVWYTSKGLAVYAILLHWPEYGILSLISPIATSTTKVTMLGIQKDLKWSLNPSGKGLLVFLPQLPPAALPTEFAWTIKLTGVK
Summary of the method: as §2

- inhibition of beta-glucuronidase (in words) [1]: specific inhibitor
Structure (SMILES): O=C(O)[C@H]1NC[C@H](O)[C@@H](O)[C@@H]1O [Compound 7, (2S,3R,4R,5S)-3,4,5-trihydroxypiperidine-2-carboxylic acid]

Structure (SMILES): O=C(O)[C@@H]1[C@@H](O)[C@H](O)[C@H]2[C@@H](O)CCN21 [Compound 56, (1R,2R,3S,7S,7aR)-1,2,7-trihydroxyhexahydro-1H-pyrrolizine-3-carboxylic acid]
- inhibition of alpha-L-iduronidase (in words) [2]: potently inhibited
- inhibition of the other 14 glycosidases described in Example 2 (in words) [3]: none

- promotion of the mannosidase activity (in words) [4]: promotion of the mannosidase activity
Structure (SMILES): C[C@@]1(O)CN[C@H](CO)[C@@H](O)[C@@H]1O [Compound 201, (2R,3R,4S,5R)-2-(hydroxymethyl)-5-methylpiperidine-3,4,5-triol]
- increased enzyme activity (beta-glucocerebrosidase) [5]: > 201%
- increased enzyme activity (alpha-galactosidase) [6]: > 201%

Structure (SMILES): CCCCCCCCCN1C[C@H](O)[C@H](O)[C@@H]1[C@H](O)[C@H](O)CO [Compound 324, (1S,2R)-1-((2R,3R,4S)-3,4-dihydroxy-1-nonylpyrrolidin-2-yl)propane-1,2,3-triol]
- activation at 714 µM [7]: 42%
- Promotion of glycosidase activity: α-D-glucosidase (Bacillus sterothermophilus) [8]: 150 % increase in absorbance compared to the water controls
- Promotion of glycosidase activity: α-L-fucosidase (Bovine kidney) [9]: 42 % increase in absorbance compared to the water controls
